One test deals with T1, recombinant BRD4 BD1 (Homo sapiens, UniProt O60885).
T1 construct: for recombinant BRD4 BD1 and BRD4 BD2 proteins
Description: Competitive fluorescence-polarization (FP) binding assay, BRD4 BD1. Also: probe 1.5 nM. Conditions: competitive FP assay; protein 10 nM, probe […]; read-out: IC50 (nM) BRD4 BD1. The essentials:
(§1)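 FP competition with FAM-labelled probe (ZBA248 or BRD-1F) against preincubated protein/probe complex; BD1 at 10 nM and BD2 at 6 nM final, in 100 mM potassium phosphate pH 6.5, 0.01% Triton X-100. 30 min, room temperature. IC50 by nonlinear regression; Ki also derived, using probe Kd from protein saturation.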

A further test addresses T2, recombinant BRD4 BD2 (Homo sapiens, UniProt O60885).
T2 construct: for recombinant BRD4 BD1 and BRD4 BD2 proteins
Description: Competitive fluorescence-polarization (FP) binding assay, BRD4 BD2. Also: probe 1.5 nM. The following applies: competitive FP assay; protein 6 nM, probe […]; read-out: IC50 (nM) BRD4 BD2. Put shortly: as §1

A further test relates to MOLM-13. Description: Cell growth inhibition, MOLM-13 leukemia cells (CellTiter-Glo). Format: cell-based. Conditions: Homo sapiens, MOLM-13, 96 h; 4 days; read-out: IC50 (nM) MOLM-13 Cell Line (CellTiter-Glo assay). Put shortly:
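MOLM-13 leukemia cells treated with compounds; viability read by CellTiter-Glo luminescence after 10-20 min reagent incubation at room temperature. IC50 derived from luminescent signal.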

Another test deals with MDA-MB-436. Description: Cell growth inhibition, MDA-MB-436 breast cancer cells (WST-8). The test is classed as cell-based. Conditions: Homo sapiens, MDA-MB-436, 96 h; 4 days; read-out: IC50 (nM) MDA-MB-436 Cell Line (WST assay). Put shortly:
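IC50 was computed from WST-8-based cell counting in MDA-MB-436 cells, with absorbance read at 450 nm.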
(Tetrazolium dyes change colour on reduction, which living cells bring about.)

A word on the IC50: it is the concentration that gives 50% inhibition.

In the case of `COc1cc2c(cc1-c1c(C)noc1C)[nH]c1nc(C)nc(Nc3c[nH]c4ncccc34)c12` [Cpd. No. 102, 7-(3,5-dimethylisoxazol-4-yl)-6-methoxy-2-methyl-N-(1H-pyrrolo[2,3-b]pyridin-3-yl)-9H-pyrimido[4,5-b]indol-4-amine], the half-inhibitory concentration (IC50) at recombinant BRD4 BD1 turned out to be 18 nM; at recombinant BRD4 BD2 it was 17 nM; with MOLM-13, 510 nM; with MDA-MB-436 it was 363 nM.
Taken in the same sequence, the figures for `COc1cc2c(cc1-c1c(C)noc1C)[nH]c1nc(C)nc(Nc3csc4ncccc34)c12` [Cpd. No. 103, N-(7-(3,5-dimethylisoxazol-4-yl)-6-methoxy-2-methyl-9H-pyrimido[4,5-b]indol-4-yl)thieno[2,3-b]pyridin-3-amine] were 29 nM, 38 nM, 39 nM and 120 nM.
Taken in the same sequence, the figures for `COc1cc2c(cc1-c1c(C)noc1C)[nH]c1nc(C)nc(Oc3ccnc4ccccc34)c12` [Cpd. No. 104, 4-(6-methoxy-2-methyl-4-(quinolin-4-yloxy)-9H-pyrimido[4,5-b]indol-7-yl)-3,5-dimethylisoxazole] were more than 1000 nM, 810 nM, 603 nM and 3.4 nM.
For `COc1cc2c(cc1-c1c(C)noc1C)[nH]c1nc(C)nc(Oc3cncc(Br)c3)c12` [Cpd. No. 105, 4-(4-(5-bromopyridin-3-yloxy)-6-methoxy-2-methyl-9H-pyrimido[4,5-b]indol-7-yl)-3,5-dimethylisoxazole], in that order: more than 1000 nM, 868 nM, 371 nM and 885 nM.
Regarding `COc1cc2c(cc1-c1c(C)noc1C)[nH]c1nc(C)nc(Nc3cncc(Cl)c3)c12` [Cpd. No. 106, N-(5-chloropyridin-3-yl)-7-(3,5-dimethylisoxazol-4-yl)-6-methoxy-2-methyl-9H-pyrimido[4,5-b]indol-4-amine], the 50% inhibitory concentration (IC50) turned out to be 1410 nM on recombinant BRD4 BD1, 619 nM on recombinant BRD4 BD2, 56 nM in the test on MOLM-13 and 618 nM with MDA-MB-436.
For `COc1cc2c(cc1-c1c(C)noc1C)[nH]c1nc(C)nc(Nc3ccc(F)c(Cl)c3)c12` [Cpd. No. 107, N-(3-chloro-4-fluorophenyl)-7-(3,5-dimethylisoxazol-4-yl)-6-methoxy-2-methyl-9H-pyrimido[4,5-b]indol-4-amine], in that order: 92 nM, 33 nM, 8 nM and 229 nM.
For `COc1cc2c(cc1-c1c(C)noc1C)[nH]c1nc(C)nc(Nc3cncc(C)c3)c12` [Cpd. No. 108, 7-(3,5-dimethylisoxazol-4-yl)-6-methoxy-2-methyl-N-(5-methylpyridin-3-yl)-9H-pyrimido[4,5-b]indol-4-amine], in that order: 58 nM, 21 nM, 19 nM and 181 nM.
For `COc1cc2c(cc1-c1c(C)noc1C)[nH]c1nc(C)nc(Nc3cnccc3C)c12` [Cpd. No. 109, 7-(3,5-dimethylisoxazol-4-yl)-6-methoxy-2-methyl-N-(4-methylpyridin-3-yl)-9H-pyrimido[4,5-b]indol-4-amine], in that order: 284 nM, 253 nM, 12 nM and 679 nM.
Take `COc1cc2c(cc1-c1c(C)noc1C)[nH]c1nc(C)nc(Nc3cc(C)ccn3)c12` [Cpd. No. 110, 7-(3,5-dimethylisoxazol-4-yl)-6-methoxy-2-methyl-N-(4-methylpyridin-2-yl)-9H-pyrimido[4,5-b]indol-4-amine]: the half-maximal inhibitory concentration (IC50) worked out at 73 nM on recombinant BRD4 BD1, 33 nM at recombinant BRD4 BD2, 16 nM with MOLM-13 and 354 nM in the test with MDA-MB-436.
Taken in the same sequence, the figures for `COc1cc2c(cc1-c1c(C)noc1C)[nH]c1nc(C)nc(Nc3cccc(C)n3)c12` [Cpd. No. 111, 7-(3,5-dimethylisoxazol-4-yl)-6-methoxy-2-methyl-N-(6-methylpyridin-2-yl)-9H-pyrimido[4,5-b]indol-4-amine] were 312 nM, 218 nM, 7 nM and 1100 nM.
For `COc1cc2c(cc1-c1c(C)noc1C)[nH]c1nc(C)nc(NC3CCCCC3)c12` [Cpd. No. 112, N-cyclohexyl-7-(3,5-dimethylisoxazol-4-yl)-6-methoxy-2-methyl-9H-pyrimido[4,5-b]indol-4-amine], in that order: 460 nM, 395 nM, 15000 nM and 2430 nM.
Take `COc1cc2c(cc1-c1c(C)noc1C)[nH]c1nc(C)nc(NC3CCCC3)c12` [Cpd. No. 113, N-cyclopentyl-7-(3,5-dimethylisoxazol-4-yl)-6-methoxy-2-methyl-9H-pyrimido[4,5-b]indol-4-amine]: the concentration for half-maximal inhibition (IC50) stood at 582 nM on recombinant BRD4 BD1, 564 nM at recombinant BRD4 BD2, 853 nM in the test on MOLM-13 and 1100 nM with MDA-MB-436.
Taken in the same sequence, the figures for `COc1cc2c(cc1-c1c(C)noc1C)[nH]c1nc(C)nc(Nc3cc(C)n(C)n3)c12` [Cpd. No. 115, N-(1,5-Dimethyl-1H-pyrazol-3-yl)-7-(3,5-dimethylisoxazol-4-yl)-6-methoxy-2-methyl-9H-pyrimido[4,5-b]indol-4-amine] were 23.2 nM, 136 nM, 30.7 nM and 81.1 nM.
As to `CCn1nc(C)cc1Nc1nc(C)nc2[nH]c3cc(-c4c(C)noc4C)c(OC)cc3c12` [Cpd. No. 116, 7-(3,5-Dimethylisoxazol-4-yl)-N-(1-ethyl-3-methyl-1H-pyrazol-5-yl)-6-methoxy-2-methyl-9H-pyrimido[4,5-b]indol-4-amine], the IC50 turned out to be 14 nM on recombinant BRD4 BD1, 9.6 nM on recombinant BRD4 BD2, 15.4 nM in the test on MOLM-13 and 26.3 nM with MDA-MB-436.
Taken in the same sequence, the figures for `COc1cc2c(cc1-c1c(C)noc1C)[nH]c1nc(C)nc(Nc3cc(C)nn3C3CCCC3)c12` [Cpd. No. 118, N-(1-Cyclopentyl-3-methyl-1H-pyrazol-5-yl)-7-(3,5-dimethylisoxazol-4-yl)-6-methoxy-2-methyl-9H-pyrimido[4,5-b]indol-4-amine] were 4.2 nM, 3.4 nM, 17.7 nM and 25 nM.
For `COc1cc2c(cc1-c1c(C)noc1C)[nH]c1nc(C)nc(Nc3cc(C)nn3C3CCC3)c12` [Cpd. No. 119, N-(1-Cyclobutyl-3-methyl-1H-pyrazol-5-yl)-7-(3,5-dimethylisoxazol-4-yl)-6-methoxy-2-methyl-9H-pyrimido[4,5-b]indol-4-amine], in that order: 11.4 nM, 10.6 nM, 38.8 nM and 26 nM.
For `COc1cc2c(cc1-c1c(C)noc1C)[nH]c1nc(C)nc(Nc3cc(C(C)(C)C)nn3C)c12` [Cpd. No. 120, N-(3-tert-Butyl-1-methyl-1H-pyrazol-5-yl)-7-(3,5-dimethylisoxazol-4-yl)-6-methoxy-2-methyl-9H-pyrimido[4,5-b]indol-4-amine], in that order: 9.6 nM, 5.8 nM, 23 nM and 23.5 nM.
`COc1cc2c(cc1-c1c(C)noc1C)[nH]c1nc(C)nc(Nc3cc(C4CC4)nn3C)c12` [Cpd. No. 121, N-(3-Cyclopropyl-1-methyl-1H-pyrazol-5-yl)-7-(3,5-dimethylisoxazol-4-yl)-6-methoxy-2-methyl-9H-pyrimido[4,5-b]indol-4-amine]: the half-inhibitory concentration (IC50) was 1.6 nM on recombinant BRD4 BD1, 3.2 nM at recombinant BRD4 BD2, 11.7 nM with MOLM-13 and 11.2 nM in the test with MDA-MB-436.
For `COc1cc2c(cc1-c1c(C)noc1C)[nH]c1nc(C)nc(Nc3c4c(nn3C)CCC4)c12` [Cpd. No. 122, 7-(3,5-Dimethylisoxazol-4-yl)-6-methoxy-2-methyl-N-(2-methyl-2,4,5,6-tetrahydrocyclopenta-[c]pyrazol-3-yl)-9H-pyrimido[4,5-b]indol-4-amine], in that order: 4.3 nM, 2.3 nM, 6 nM and 7.8 nM.
Taken in the same sequence, the figures for `COc1cc2c(cc1-c1c(C)noc1C)[nH]c1nc(C)nc(Nc3nn(C)c4cccnc34)c12` [Cpd. No. 123, 7-(3,5-Dimethylisoxazol-4-yl)-6-methoxy-2-methyl-N-(1-methyl-1H-pyrazolo[4,3-b]pyridin-3-yl)-9H-pyrimido[4,5-b]indol-4-amine] were 257 nM, 483 nM, 759 nM and 1420 nM.
Taken in the same sequence, the figures for `COc1cc2c(cc1-c1c(C)noc1C)[nH]c1nc(C)nc(Nc3nn(C)c4c3CCCC4)c12` [Cpd. No. 124, 7-(3,5-Dimethylisoxazol-4-yl)-6-methoxy-2-methyl-N-(1-methyl-4,5,6,7-tetrahydro-1H-indazol-3-yl)-9H-pyrimido[4,5-b]indol-4-amine] were 5 nM, 29.5 nM, 41.9 nM and 58.3 nM.

The values above are taken from US9580430B2, “9H-pyrimido[4,5-B]indoles and related analogs as BET bromodomain inhibitors” (THE REGENTS OF THE UNIVERSITY OF MICHIGAN, priority 2014, dated 2017).
